Data published in US20240344145A1, “PHARMACOGENOMICS SCORE TO MAKE DECISIONS ON THERAPY AUGMENTATION IN AML” (University of Florida Research Foundation, Incorporated, priority 2021, published 2024).

System: pediatric AML patients
Experiment: AML02 multicenter clinical trial, LDAC vs HDAC induction arms: MRD1, EFS and OS overall and by ACS10 score
Type: in vivo, human
Parameters: 3-year EFS / 4-year OS / 5-year OS / 4-year EFS / 5-year EFS / 3-year OS: unit not given here
Settings: for Event-free Survival 5 years / Overall Survival 5 years: AML02 cohort
Protocol: One hundred and sixty-six pediatric AML patients treated under the multicenter AML02 clinical trial protocol were included in the study. Details of study design and clinical outcome have been described elsewhere. Briefly, patients with de novo AML were randomized to receive either high (3 g/m^2, given every 12 h on days 1, 3, and 5; this condition is designated “HDAC”) or low dose (100 mg/m^2 given every 12 h on days 1-10; this condition is designated “LDAC”) cytarabine along with daunorubicin (50 mg/m^2 on days 2, 4 and 6) and etoposide (100 mg/m^2 on days 2-6) as a first course of chemotherapy with subsequent treatment tailored to response and risk classification. For initial risk assignment, patients with cytogenetic translocations comprisingt [8;21] (e.g., translocation between chromosome 8 and 21), inv (16), ort [9;11] were classified as low-risk. Patients with features such as deletion of chromosome 7 (−7), presence of FLT3-ITD mutation (FLT-ITD), cytogenetic translocation comprisingt [6;9], megakaryoblastic leukemia (AMKL), treatment-related AML, or AML arising from MDS were classified as high-risk AML. Patients lacking any of the low or high-risk group features were provisionally classified as standard risk AML. Patient risk classifications were updated on the basis of minimal residual disease evaluations. Clinical endpoints used in this evaluation were defined as follows: i) Minimal residual disease after induction 1 (“MRD1”) (patients were defined as MRD positive if they had ≥1 leukemic cell per 1000 mononuclear bone marrow cells (≥0.1%); ii) Complete remission defined as trilineage hematopoietic recovery with less than 5% blasts in the marrow; iii) Event-free survival (“EFS”) defined as the time from study enrollment to induction failure, relapse, secondary malignancy, death, or study withdrawal for any reason, with event-free patients censored on the date of last follow-up; and iv) Overall survival (“OS”) defined as the time from study enrollment to death, with living patients censored on the date of last follow-up. St. Jude Institutional Review Board approved the study, and informed consent was obtained from parents/guardians and consents/assents from the individuals.
The association of MRD1, EFS, and OS was evaluated with ACS10 scores in the AML02 discovery cohort and the AAML0531 validation cohort. The Kaplan-Meier method was used to estimate the EFS and OS probabilities for well-defined groups of patients. Cox regression models were used to associate ACS10 with EFS and OS and used logistic regression models to associate ACS10 with MRD1. The Wilcoxon rank-sum test and Kruskal-Wallis test were used to compare medians of numeric variables across groups. Chi-square tests and Fisher's exact test were used to evaluate the association among pairs of categorical variables. All p-values are two-sided. All statistical analyses were performed using R software (www.r-project.org).
The multicenter AML02 clinical trial randomly assigned subjects to receive low dose ara-C (LDAC: 100 mg/m^2; n=91 patients) or high dose ara-C(HDAC: 3 g/m^2; n=75 patients) in combination with daunorubicin and etoposide as the first course of chemotherapy as described above in patient cohort section. Thus, the association of SNPs with outcome within each arm separately was also explored (Table 5).
Given patients in AML02 cohort were randomized to receive low or augmented high dose of ara-C, this unique opportunity was leveraged to evaluate performance of ACS10 score within the different ara-C dose treatment arms (of note LDAC and HDAC arms had similar distribution of patients across, disease characteristics, risk group, cytogenetics, race, gender etc. Table 3). […]

[1] = ACS10 score 0, risk-adjusted Cox model
[2] = ACS10 score 1, risk-adjusted Cox model
[3] = ACS10 score 2, risk-adjusted Cox model
[4] = ACS10 score 3, risk-adjusted Cox model
[5] = ACS10 score 4, risk-adjusted Cox model
[6] = ACS10 score 5, risk-adjusted Cox model
[7] = ACS10 score −1, risk-adjusted Cox model
[8] = ACS10 score −2, risk-adjusted Cox model
[9] = ACS10 score −3, risk-adjusted Cox model
[10] = ACS10 score −5, risk-adjusted Cox model
[11] = low ACS10 score (≤0) patients, AML02
[12] = number of patients per arm, after induction 1, AML02 cohort
[13] = patients with ACS10 score of +5, risk-adjusted Cox model
[14] = patients with ACS10 score of −5, risk-adjusted Cox model

Nc1ccn([C@@H]2O[C@H](CO)[C@@H](O)[C@@H]2O)c(=O)n1 [LDAC, cytarabine]
3-year EFS [1]: 0.5527
3-year OS [1]: 0.7030
4-year EFS [1]: 0.5391
4-year OS [1]: 0.6960
5-year EFS [1]: 0.5316
5-year OS [1]: 0.6960
3-year EFS [2]: 0.6541
3-year OS [2]: 0.7604
4-year EFS [2]: 0.6423
4-year OS [2]: 0.7544
5-year EFS [2]: 0.6357
5-year OS [2]: 0.7544
3-year EFS [3]: 0.7393
3-year OS [3]: 0.8089
4-year EFS [3]: 0.7296
4-year OS [3]: 0.8039
5-year EFS [3]: 0.7242
5-year OS [3]: 0.8039
3-year EFS [4]: 0.8073
3-year OS [4]: 0.8489
4-year EFS [4]: 0.7997
4-year OS [4]: 0.8448
5-year EFS [4]: 0.7955
5-year OS [4]: 0.8448
3-year EFS [5]: 0.8596
3-year OS [5]: 0.8814
4-year EFS [5]: 0.8539
4-year OS [5]: 0.8781
5-year EFS [5]: 0.8507
5-year OS [5]: 0.8781
3-year EFS [6]: 0.8988
3-year OS [6]: 0.9074
4-year EFS [6]: 0.8946
4-year OS [6]: 0.9048
5-year EFS [6]: 0.8922
5-year OS [6]: 0.9048
3-year EFS [7]: 0.4399
3-year OS [7]: 0.6369
4-year EFS [7]: 0.4255
4-year OS [7]: 0.6289
5-year EFS [7]: 0.4176
5-year OS [7]: 0.6289
3-year EFS [8]: 0.3251
3-year OS [8]: 0.5632
4-year EFS [8]: 0.3112
4-year OS [8]: 0.5546
5-year EFS [8]: 0.3037
5-year OS [8]: 0.5546
3-year EFS [9]: 0.2202
3-year OS [9]: 0.4846
4-year EFS [9]: 0.2083
4-year OS [9]: 0.4756
5-year EFS [9]: 0.2020
5-year OS [9]: 0.4756
3-year EFS [10]: 0.0743
3-year OS [10]: 0.3280
4-year EFS [10]: 0.0683
4-year OS [10]: 0.3197
5-year EFS [10]: 0.0652
5-year OS [10]: 0.3197
Event-free Survival 5 years (High ACS10 score group): 0.712 ± 0.063
Overall Survival 5 years (High ACS10 score group): 0.829 ± 0.052
Event-free Survival 5 years (Low ACS10 score group): 0.421 ± 0.08
Overall Survival 5 years (Low ACS10 score group): 0.579 ± 0.08
5 year EFS [11]: 42%
five-year OS [11]: 57%
MRDIND1 Negative (<0.1%) [12]: 49^+
MRDIND1 Positive (>=0.1%) [12]: 38^+
3-year EFS, model estimate [13]: 89.9%
3-year OS, model estimate [13]: 90.7%
3-year EFS, model estimate [14]: 7.4%
3-year OS, model estimate [14]: 32.8%
Event-free Survival 5 years (probability, whole arm): 0.591 ± 0.0518
Overall Survival 5 years (probability, whole arm): 0.724 ± 0.047
EFS HR, low-ACS10 vs high-ACS10 score (within arm, AML02): 2.81
OS HR, low-ACS10 vs high-ACS10 score (within arm, AML02): 2.98
EFS HR for each one-point increase in ACS10 (within arm, risk-adjusted Cox model, AML02): 0.70
